Biological target: T1, AgrA (Staphylococcus aureus, UniProt P0A0I7)
T1 construct: endogenous in cells; host or cells: S. aureus USA300 strain UAMS-1625 carrying a P3-lacZ reporter plasmid
Test: cell-based
Set-up: species or system S. aureus
Conditions: for Ratio IC50 (in presence of HSA)/IC50 (in absence of HSA): 40 mg/mL HSA versus no HSA
Experimental: The inventive compounds are 3-(phenylsulfonyl)-[1,2,3]triazolo[1,5a]quinazolin-5(4h)-one derivatives comprising an N-bound piperazine or homopiperazine at the 8-position of the [1,2,3]triazolo[1,5a]quinazolin-5(4h)-one core, further substituted (on the second nitrogen atom) by an (optionally substituted) acetyl or propionyl amide group. […] Specifically, the reporter gene lacZ (which encodes the protein product β-galactosidase) was transfected into S. aureus with a plasmid under control of the P3 promoter. The compounds were serially diluted in lysogeny broth (LB), and incubated with S. aureus. Following incubation, the S. aureus cells were lysed and treated with 4-methylumbelliferyl-galactopyranoside (MUG). The β-galactosidase produced by expression of lacZ cleaved the MUG into galactopyranose and 4-methylumbelliferone, which was measured by fluorescence.
The resulting reporter strain was used to measure AgrA inhibitory activity as follows. From an overnight culture plate, cells were resuspended in 0.9% (w/v) saline solution and bacterial inoculum was prepared in LB medium with 5×10^5 CFU/ml. Compounds were two-fold serially diluted in LB and 50 μL of this 10× concentrated samples were added into the 96-deep well plate. 500 μL of bacterial suspension was finally added to the compounds or DMSO control. Plates were covered and incubated with shaking at 37° C. After 18 hours incubation, 100 μL was transferred to a new clear 96-well plate and the OD600 was measured using a TECAN Infinite F200 microplate reader to control for growth inhibition. Another 100 μL was transferred to a new black 96-well plate containing 30 μL of lysis buffer (20 mM Tris/HCl, 3 mM MgCl2, 0.5% Tween 20 (v/v), 0.5% NP-40 (v/v)) and the plate was incubated with shaking at 37° C. for 60 min. 20 μL of the substrate MUG (4-Methylumbelliferyl O-D-galactopyranoside) at 0.25 mg/ml was added and the fluorescence (excitation: 360 nm, emission: 450 mu) was measured with a TECAN Infinite F200 microplate reader after 3 hours incubation at 37° C. with shaking. The IC50 was determined using GraphPad PRISM after normalization to DMSO control.

[1] = IC50 at 40 mg/mL HSA, LB medium supplemented with human serum albumin 40 mg/mL
[2] = IC50 without HSA, LB medium, no human serum albumin, 18 hours incubation

T1 sequence (P0A0I7 whole entry): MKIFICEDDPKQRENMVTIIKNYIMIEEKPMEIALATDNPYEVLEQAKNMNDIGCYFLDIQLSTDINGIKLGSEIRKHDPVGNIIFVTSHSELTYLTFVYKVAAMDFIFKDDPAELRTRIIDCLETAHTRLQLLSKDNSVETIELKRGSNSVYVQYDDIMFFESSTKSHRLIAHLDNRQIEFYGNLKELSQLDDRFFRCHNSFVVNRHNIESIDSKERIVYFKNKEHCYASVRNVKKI

For `Cc1ccc(S(=O)(=O)c2nnn3c2[nH]c(=O)c2ccc(N4CCN(CC(=O)N5CC(C)CC(C)C5)CC4)cc23)c(C)c1` (mixture of isomers) [Compound 63], the “Ratio IC50 (in presence of HSA)/IC50 (in absence of HSA)” value (from here on “Ratio IC50 (in presence of HSA)/IC50”) was “++ (++: 25 < ratio ≤ 125)”, the “IC50 at 40 mg/mL HSA” value (LB medium supplemented with human serum albumin 40 mg/mL) was “++ (++: 10 μg/mL < IC50 ≤ 50 μg/mL)” and the “IC50 without HSA” value (LB medium, no human serum albumin, 18 hours incubation) was “+++ (+++: IC50 ≤ 1 μg/mL)”.
`Cc1ccc(S(=O)(=O)c2nnn3c2[nH]c(=O)c2ccc(N4CCN(CC(=O)N5CCCC5)CC4)cc23)c(C)c1` [Compound 1, 3-(2,4-dimethylphenyl)sulfonyl-8-[4-(2-oxo-2-pyrrolidin-1-yl-ethyl)piperazin-1-yl]-4H-triazolo[1,5-a]quinazolin-5-one] was tested, and the “Ratio IC50 (in presence of HSA)/IC50” value was “++ (++: 25 < ratio ≤ 125)”, the IC50 [1] was 18.2 to 91 µM and the IC50 [2] was under 1.82 µM.
`Cc1ccc(S(=O)(=O)c2nnn3c2[nH]c(=O)c2ccc(N4CCN(CC(=O)N5CCOCC5)CC4)cc23)c(C)c1` [Compound 2, 3-(2,4-dimethylphenyl)sulfonyl-8-[4-(2-morpholino-2-oxo-ethyl)piperazin-1-yl]-4H-triazolo[1,5-a]quinazolin-5-one] was tested, and the “Ratio IC50 (in presence of HSA)/IC50” value was “+++ (+++: ratio ≤ 25)”, the IC50 [1] was under 17.7 µM and the IC50 [2] was under 1.77 µM.
Work on `CNC(=O)CN1CCN(c2ccc3c(=O)[nH]c4c(S(=O)(=O)c5ccc(C)cc5C)nnn4c3c2)CC1` [Compound 3] yielded an IC50 [1] of under 19.6 µM and an IC50 [2] of under 1.96 µM.
With `CCNC(=O)CN1CCN(c2ccc3c(=O)[nH]c4c(S(=O)(=O)c5ccc(C)cc5C)nnn4c3c2)CC1` [Compound 4] the IC50 [1] was under 19.1 µM and the IC50 [2] was under 1.91 µM.
`CCCNC(=O)CN1CCN(c2ccc3c(=O)[nH]c4c(S(=O)(=O)c5ccc(C)cc5C)nnn4c3c2)CC1` [Compound 5] was tested, and the IC50 [1] was 18.6 to 93 µM and the IC50 [2] was under 1.86 µM.
Work on `Cc1ccc(S(=O)(=O)c2nnn3c2[nH]c(=O)c2ccc(N4CCN(CC(=O)NC(C)C)CC4)cc23)c(C)c1` [Compound 6] yielded an IC50 [1] of under 18.6 µM and an IC50 [2] of under 1.86 µM.
Molecule `Cc1ccc(S(=O)(=O)c2nnn3c2[nH]c(=O)c2ccc(N4CCN(CC(=O)NCC(C)C)CC4)cc23)c(C)c1` [Compound 7] has an IC50 [1] of 18.1 to 90.6 µM and an IC50 [2] of under 1.81 µM.
With `Cc1ccc(S(=O)(=O)c2nnn3c2[nH]c(=O)c2ccc(N4CCN(CC(=O)N(C)C)CC4)cc23)c(C)c1` [Compound 8] the IC50 [1] was 19.1 to 95.5 µM and the IC50 [2] was under 1.91 µM.
`CCN(C)C(=O)CN1CCN(c2ccc3c(=O)[nH]c4c(S(=O)(=O)c5ccc(C)cc5C)nnn4c3c2)CC1` [Compound 9] showed an IC50 [1] of 18.6 to 93 µM and an IC50 [2] of under 1.86 µM.
With `CCCCCNC(=O)CN1CCN(c2ccc3c(=O)[nH]c4c(S(=O)(=O)c5ccc(C)cc5C)nnn4c3c2)CC1` [Compound 10] the IC50 [1] was 17.7 to 88.4 µM and the IC50 [2] was under 1.77 µM.
In the case of `Cc1ccc(S(=O)(=O)c2nnn3c2[nH]c(=O)c2ccc(N4CCN(CC(=O)NCCC(C)C)CC4)cc23)c(C)c1` [Compound 11], the IC50 [1] is reported as 17.7 to 88.4 µM and the IC50 [2] is reported as under 1.77 µM.
Molecule `CCCCCCNC(=O)CN1CCN(c2ccc3c(=O)[nH]c4c(S(=O)(=O)c5ccc(C)cc5C)nnn4c3c2)CC1` [Compound 12] has an IC50 [1] of 17.2 to 86.2 µM and an IC50 [2] of under 1.72 µM.
`Cc1ccc(S(=O)(=O)c2nnn3c2[nH]c(=O)c2ccc(N4CCN(CC(=O)NCCC(C)(C)C)CC4)cc23)c(C)c1` [Compound 13] was tested, and the IC50 [1] was 17.2 to 86.2 µM and the IC50 [2] was under 1.72 µM.
Work on `Cc1ccc(S(=O)(=O)c2nnn3c2[nH]c(=O)c2ccc(N4CCN(CC(=O)NCCC(F)(F)F)CC4)cc23)c(C)c1` [Compound 14] yielded an IC50 [1] of 16.9 to 84.5 µM and an IC50 [2] of under 1.69 µM.
In the case of `Cc1ccc(S(=O)(=O)c2nnn3c2[nH]c(=O)c2ccc(N4CCN(CC(=O)NCCCC(F)(F)F)CC4)cc23)c(C)c1` [Compound 15], the IC50 [1] is reported as 16.5 to 82.6 µM and the IC50 [2] is reported as under 1.65 µM.
`COCCNC(=O)CN1CCN(c2ccc3c(=O)[nH]c4c(S(=O)(=O)c5ccc(C)cc5C)nnn4c3c2)CC1` [Compound 16] gave an IC50 [1] of under 18.1 µM and an IC50 [2] of under 1.81 µM.
`COCCCNC(=O)CN1CCN(c2ccc3c(=O)[nH]c4c(S(=O)(=O)c5ccc(C)cc5C)nnn4c3c2)CC1` [Compound 17] showed an IC50 [1] of 17.6 to 88.1 µM and an IC50 [2] of under 1.76 µM.
`CSCCNC(=O)CN1CCN(c2ccc3c(=O)[nH]c4c(S(=O)(=O)c5ccc(C)cc5C)nnn4c3c2)CC1` [Compound 18] showed an IC50 [1] of 17.6 to 87.8 µM and an IC50 [2] of under 1.76 µM.
